ChEMBL document CHEMBL1909046, “DrugMatrix in vitro pharmacology data”

molecular target: T1, Neuropeptide Y receptor type 2 (Homo sapiens, UniProt P49146); type: cell membranes, Membrane; conditions: kan-ts; further: in other assays of this panel Not Active means under 50% inhibition at 10 µM
T1 sequence (P49146 whole entry): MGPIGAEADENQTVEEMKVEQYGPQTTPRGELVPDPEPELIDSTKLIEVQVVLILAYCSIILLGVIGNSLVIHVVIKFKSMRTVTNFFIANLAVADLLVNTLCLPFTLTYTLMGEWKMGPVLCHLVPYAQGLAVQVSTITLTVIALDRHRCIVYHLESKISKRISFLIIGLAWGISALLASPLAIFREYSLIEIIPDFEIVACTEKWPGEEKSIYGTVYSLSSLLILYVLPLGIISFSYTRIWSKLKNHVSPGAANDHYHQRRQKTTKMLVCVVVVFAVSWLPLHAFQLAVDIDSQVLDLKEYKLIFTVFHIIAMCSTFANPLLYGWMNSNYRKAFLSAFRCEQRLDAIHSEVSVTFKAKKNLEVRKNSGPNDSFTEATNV

Row | Compound | IC50 | Ki
1 | O=C(O)c1ccccc1O [SALICYLIC ACID] | Not Active | 
2 | C[S+]([O-])c1ccc(-c2nc(-c3ccncc3)c(-c3ccc(F)cc3)[nH]2)cc1 (configuration not stated) [SB-203580] | Not Active | 
3 | CC1CCC(NC(=O)N(CCCl)N=O)CC1 (configuration not stated) [SEMUSTINE] | Not Active | 
4 | O=C1C[C@@H]2OCC=C3CN4CC[C@]56c7ccccc7N1[C@H]5[C@H]2[C@H]3C[C@H]46 [STRYCHNINE] | Not Active | 
5 | C[N+](C)(C)CCOC(=O)CCC(=O)OCC[N+](C)(C)C.[Cl-].[Cl-] [SUCCINYLCHOLINE CHLORIDE] | Not Active | 
6 | Nc1ccc(S(=O)(=O)NC(=O)c2ccccc2)cc1 [SULFABENZAMIDE] | Not Active | 
7 | CCCCCCCCNC(C)C(O)c1ccc(SC(C)C)cc1 (configuration not stated) [SULOCTIDIL] | Not Active | 
8 | O=c1[nH]c(=O)n(C2CCCO2)cc1F (configuration not stated) [TEGAFUR] | Not Active | 
9 | CC(=N)S [THIOACETAMIDE] | Not Active | 
10 | Cc1ccc(C(=O)c2ccc(CC(=O)O)n2C)cc1 [TOLMETIN] | Not Active | 
11 | CC(=O)OCC(COC(C)=O)OC(C)=O [TRIACETIN] | Not Active | 
12 | CN1CCN(CCCN2c3ccccc3Sc3ccc(C(F)(F)F)cc32)CC1 [TRIFLUOPERAZINE] | Not Active | 
13 | TRANSPLATIN | Not Active | Not Active
14 | ZIRCONIUM(IV) CHLORIDE | Not Active | Not Active

molecular target: T2, D(4) dopamine receptor (Homo sapiens, UniProt P21917); assay: DRUGMATRIX: Dopamine D4.2 radioligand binding (ligand: [3H] Spiperone); type: cell membranes, CHO-K1, Membrane; conditions: cho-k1; Not Active = under 50% inhibition at 10 µM
T2 sequence (P21917 whole entry): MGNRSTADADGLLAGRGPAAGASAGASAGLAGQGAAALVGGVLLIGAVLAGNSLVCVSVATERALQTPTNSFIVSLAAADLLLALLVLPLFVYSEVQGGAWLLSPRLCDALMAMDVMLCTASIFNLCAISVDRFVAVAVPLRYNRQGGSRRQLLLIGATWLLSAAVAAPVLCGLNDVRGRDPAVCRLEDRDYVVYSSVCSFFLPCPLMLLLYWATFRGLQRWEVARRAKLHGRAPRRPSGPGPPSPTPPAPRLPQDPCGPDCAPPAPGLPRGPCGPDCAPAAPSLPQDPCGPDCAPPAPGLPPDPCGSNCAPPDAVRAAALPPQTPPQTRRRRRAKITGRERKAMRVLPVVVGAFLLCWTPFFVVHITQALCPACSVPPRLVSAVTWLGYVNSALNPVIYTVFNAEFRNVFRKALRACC

Row | Compound | IC50 | Ki
15 | O=C(O)c1ccccc1O [SALICYLIC ACID] | Not Active | 
16 | C[S+]([O-])c1ccc(-c2nc(-c3ccncc3)c(-c3ccc(F)cc3)[nH]2)cc1 (configuration not stated) [SB-203580] | Not Active | 
17 | CC1CCC(NC(=O)N(CCCl)N=O)CC1 (configuration not stated) [SEMUSTINE] | Not Active | 
18 | O=C1C[C@@H]2OCC=C3CN4CC[C@]56c7ccccc7N1[C@H]5[C@H]2[C@H]3C[C@H]46 [STRYCHNINE] | Not Active | 
19 | C[N+](C)(C)CCOC(=O)CCC(=O)OCC[N+](C)(C)C.[Cl-].[Cl-] [SUCCINYLCHOLINE CHLORIDE] | Not Active | 
20 | Nc1ccc(S(=O)(=O)NC(=O)c2ccccc2)cc1 [SULFABENZAMIDE] | Not Active | 
21 | CCCCCCCCNC(C)C(O)c1ccc(SC(C)C)cc1 (configuration not stated) [SULOCTIDIL] | Not Active | 
22 | O=c1[nH]c(=O)n(C2CCCO2)cc1F (configuration not stated) [TEGAFUR] | Not Active | 
23 | CC(=N)S [THIOACETAMIDE] | Not Active | 
24 | Cc1ccc(C(=O)c2ccc(CC(=O)O)n2C)cc1 [TOLMETIN] | Not Active | 
25 | CC(=O)OCC(COC(C)=O)OC(C)=O [TRIACETIN] | Not Active | 
26 | CN1CCN(CCCN2c3ccccc3Sc3ccc(C(F)(F)F)cc32)CC1 [TRIFLUOPERAZINE] | Not Active | 
27 | TRANSPLATIN | Not Active | Not Active
28 | ZIRCONIUM(IV) CHLORIDE | Not Active | Not Active

molecular target: Delta-type opioid receptor (Homo sapiens, UniProt P41143); type: cell membranes, HEK293, Membrane; conditions: hek293; further: in other assays of this panel Not Active means under 50% inhibition at 10 µM
Sequence (P41143 whole entry): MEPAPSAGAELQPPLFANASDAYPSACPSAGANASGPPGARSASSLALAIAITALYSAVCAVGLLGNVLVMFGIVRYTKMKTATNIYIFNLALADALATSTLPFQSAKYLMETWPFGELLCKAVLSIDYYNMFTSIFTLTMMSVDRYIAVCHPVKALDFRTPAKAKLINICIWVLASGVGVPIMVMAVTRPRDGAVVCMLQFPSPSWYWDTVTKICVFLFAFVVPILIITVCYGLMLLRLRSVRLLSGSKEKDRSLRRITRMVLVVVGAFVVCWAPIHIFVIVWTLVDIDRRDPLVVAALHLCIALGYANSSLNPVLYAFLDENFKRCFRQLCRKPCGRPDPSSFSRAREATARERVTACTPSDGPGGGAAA

Row | Compound | IC50 | Ki
29 | O=C(O)c1ccccc1O [SALICYLIC ACID] | Not Active | 
30 | C[S+]([O-])c1ccc(-c2nc(-c3ccncc3)c(-c3ccc(F)cc3)[nH]2)cc1 (configuration not stated) [SB-203580] | Not Active | 
31 | CC1CCC(NC(=O)N(CCCl)N=O)CC1 (configuration not stated) [SEMUSTINE] | Not Active | 
32 | O=C1C[C@@H]2OCC=C3CN4CC[C@]56c7ccccc7N1[C@H]5[C@H]2[C@H]3C[C@H]46 [STRYCHNINE] | Not Active | 
33 | C[N+](C)(C)CCOC(=O)CCC(=O)OCC[N+](C)(C)C.[Cl-].[Cl-] [SUCCINYLCHOLINE CHLORIDE] | Not Active | 
34 | Nc1ccc(S(=O)(=O)NC(=O)c2ccccc2)cc1 [SULFABENZAMIDE] | Not Active | 
35 | CCCCCCCCNC(C)C(O)c1ccc(SC(C)C)cc1 (configuration not stated) [SULOCTIDIL] | Not Active | 
36 | O=c1[nH]c(=O)n(C2CCCO2)cc1F (configuration not stated) [TEGAFUR] | Not Active | 
37 | CC(=N)S [THIOACETAMIDE] | Not Active | 
38 | Cc1ccc(C(=O)c2ccc(CC(=O)O)n2C)cc1 [TOLMETIN] | Not Active | 
39 | CC(=O)OCC(COC(C)=O)OC(C)=O [TRIACETIN] | Not Active | 
40 | CN1CCN(CCCN2c3ccccc3Sc3ccc(C(F)(F)F)cc32)CC1 [TRIFLUOPERAZINE] | Not Active | 
41 | TRANSPLATIN | Not Active | Not Active
42 | ZIRCONIUM(IV) CHLORIDE | Not Active | Not Active

molecular target: Cannabinoid receptor 1 (Homo sapiens, UniProt P21554); type: cell membranes, Chem-1, Membrane; conditions: chem-1; further: in other assays of this panel Not Active means under 50% inhibition at 10 µM
Sequence (P21554 whole entry): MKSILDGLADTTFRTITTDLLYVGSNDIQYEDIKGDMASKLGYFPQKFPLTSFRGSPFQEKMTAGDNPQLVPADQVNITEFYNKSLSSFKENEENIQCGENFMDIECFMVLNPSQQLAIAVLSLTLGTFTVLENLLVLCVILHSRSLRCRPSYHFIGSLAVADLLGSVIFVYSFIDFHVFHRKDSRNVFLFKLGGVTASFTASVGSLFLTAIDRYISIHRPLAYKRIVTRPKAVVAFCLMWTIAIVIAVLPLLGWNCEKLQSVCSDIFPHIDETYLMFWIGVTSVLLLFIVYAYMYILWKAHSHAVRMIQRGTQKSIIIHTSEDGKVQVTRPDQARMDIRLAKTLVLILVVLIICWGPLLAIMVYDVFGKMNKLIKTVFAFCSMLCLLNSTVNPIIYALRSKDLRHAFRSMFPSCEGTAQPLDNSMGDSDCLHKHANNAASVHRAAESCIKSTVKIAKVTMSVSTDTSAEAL

Row | Compound | IC50 | Ki
43 | O=C(O)c1ccccc1O [SALICYLIC ACID] | Not Active | 
44 | C[S+]([O-])c1ccc(-c2nc(-c3ccncc3)c(-c3ccc(F)cc3)[nH]2)cc1 (configuration not stated) [SB-203580] | Not Active | 
45 | CC1CCC(NC(=O)N(CCCl)N=O)CC1 (configuration not stated) [SEMUSTINE] | Not Active | 
46 | O=C1C[C@@H]2OCC=C3CN4CC[C@]56c7ccccc7N1[C@H]5[C@H]2[C@H]3C[C@H]46 [STRYCHNINE] | Not Active | 
47 | C[N+](C)(C)CCOC(=O)CCC(=O)OCC[N+](C)(C)C.[Cl-].[Cl-] [SUCCINYLCHOLINE CHLORIDE] | Not Active | 
48 | Nc1ccc(S(=O)(=O)NC(=O)c2ccccc2)cc1 [SULFABENZAMIDE] | Not Active | 
49 | CCCCCCCCNC(C)C(O)c1ccc(SC(C)C)cc1 (configuration not stated) [SULOCTIDIL] | Not Active | 
50 | O=c1[nH]c(=O)n(C2CCCO2)cc1F (configuration not stated) [TEGAFUR] | Not Active | 
51 | CC(=N)S [THIOACETAMIDE] | Not Active | 
52 | Cc1ccc(C(=O)c2ccc(CC(=O)O)n2C)cc1 [TOLMETIN] | Not Active | 
53 | CC(=O)OCC(COC(C)=O)OC(C)=O [TRIACETIN] | Not Active | 
54 | CN1CCN(CCCN2c3ccccc3Sc3ccc(C(F)(F)F)cc32)CC1 [TRIFLUOPERAZINE] | Not Active | 
55 | TRANSPLATIN | Not Active | Not Active
56 | ZIRCONIUM(IV) CHLORIDE | Not Active | Not Active

molecular target: Tyrosine-protein kinase Lck (Homo sapiens, UniProt P06239); assay: DRUGMATRIX: Protein Tyrosine Kinase, LCK enzyme inhibition (substrate: Poly(Glu:Tyr)); type: cell-based, Insect cells; conditions: insect cells; Not Active = under 50% inhibition at 10 µM
Sequence (P06239 whole entry): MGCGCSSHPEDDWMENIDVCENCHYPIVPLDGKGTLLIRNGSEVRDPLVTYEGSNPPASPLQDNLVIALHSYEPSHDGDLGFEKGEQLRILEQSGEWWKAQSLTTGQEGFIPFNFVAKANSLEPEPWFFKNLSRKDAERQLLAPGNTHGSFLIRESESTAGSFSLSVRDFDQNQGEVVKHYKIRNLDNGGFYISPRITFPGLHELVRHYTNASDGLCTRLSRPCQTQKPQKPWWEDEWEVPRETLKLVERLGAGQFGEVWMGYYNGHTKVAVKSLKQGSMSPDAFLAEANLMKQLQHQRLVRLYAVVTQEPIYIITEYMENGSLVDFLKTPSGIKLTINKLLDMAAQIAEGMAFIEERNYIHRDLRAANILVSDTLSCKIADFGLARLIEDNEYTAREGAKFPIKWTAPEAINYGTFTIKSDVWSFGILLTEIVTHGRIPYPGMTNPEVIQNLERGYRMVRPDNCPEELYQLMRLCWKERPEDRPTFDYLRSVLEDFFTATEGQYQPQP

Row | Compound | IC50 | Ki
57 | O=C(O)c1ccccc1O [SALICYLIC ACID] | Not Active | 
58 | CC1CCC(NC(=O)N(CCCl)N=O)CC1 (configuration not stated) [SEMUSTINE] | Not Active | 
59 | O=C1C[C@@H]2OCC=C3CN4CC[C@]56c7ccccc7N1[C@H]5[C@H]2[C@H]3C[C@H]46 [STRYCHNINE] | Not Active | 
60 | C[N+](C)(C)CCOC(=O)CCC(=O)OCC[N+](C)(C)C.[Cl-].[Cl-] [SUCCINYLCHOLINE CHLORIDE] | Not Active | 
61 | Nc1ccc(S(=O)(=O)NC(=O)c2ccccc2)cc1 [SULFABENZAMIDE] | Not Active | 
62 | CCCCCCCCNC(C)C(O)c1ccc(SC(C)C)cc1 (configuration not stated) [SULOCTIDIL] | Not Active | 
63 | O=c1[nH]c(=O)n(C2CCCO2)cc1F (configuration not stated) [TEGAFUR] | Not Active | 
64 | CC(=N)S [THIOACETAMIDE] | Not Active | 
65 | Cc1ccc(C(=O)c2ccc(CC(=O)O)n2C)cc1 [TOLMETIN] | Not Active | 
66 | CC(=O)OCC(COC(C)=O)OC(C)=O [TRIACETIN] | Not Active | 
67 | CN1CCN(CCCN2c3ccccc3Sc3ccc(C(F)(F)F)cc32)CC1 [TRIFLUOPERAZINE] | Not Active | 
68 | ZIRCONIUM(IV) CHLORIDE | Not Active | Not Active

same assay, conditions: insect cells; Not Active = under 50% inhibition at 10 µM; read-out: IC50

Row | Compound | IC50 [nM]
69 | TRANSPLATIN | 2720

molecular target: Estrogen receptor beta (Homo sapiens, UniProt Q92731); conditions: sf9; further: in other assays of this panel Not Active means under 50% inhibition at 10 µM
Sequence (Q92731 whole entry): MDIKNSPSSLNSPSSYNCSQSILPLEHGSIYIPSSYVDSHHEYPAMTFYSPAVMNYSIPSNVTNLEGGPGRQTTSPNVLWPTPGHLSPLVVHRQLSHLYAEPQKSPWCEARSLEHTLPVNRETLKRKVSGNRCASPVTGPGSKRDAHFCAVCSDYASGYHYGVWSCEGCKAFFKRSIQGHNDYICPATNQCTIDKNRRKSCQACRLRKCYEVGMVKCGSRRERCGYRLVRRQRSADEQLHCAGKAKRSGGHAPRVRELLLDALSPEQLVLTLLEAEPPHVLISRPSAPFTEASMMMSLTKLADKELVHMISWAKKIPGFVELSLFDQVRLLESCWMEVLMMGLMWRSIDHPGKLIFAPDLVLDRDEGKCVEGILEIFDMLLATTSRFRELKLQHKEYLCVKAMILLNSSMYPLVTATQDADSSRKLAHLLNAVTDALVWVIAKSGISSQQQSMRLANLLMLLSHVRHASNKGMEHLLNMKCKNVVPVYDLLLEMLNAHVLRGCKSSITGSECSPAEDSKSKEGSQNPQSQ

Row | Compound | IC50 | Ki
70 | C[S+]([O-])c1ccc(-c2nc(-c3ccncc3)c(-c3ccc(F)cc3)[nH]2)cc1 (configuration not stated) [SB-203580] | Not Active | 
71 | CC1CCC(NC(=O)N(CCCl)N=O)CC1 (configuration not stated) [SEMUSTINE] | Not Active | 
72 | C[N+](C)(C)CCOC(=O)CCC(=O)OCC[N+](C)(C)C.[Cl-].[Cl-] [SUCCINYLCHOLINE CHLORIDE] | Not Active | 
73 | Nc1ccc(S(=O)(=O)NC(=O)c2ccccc2)cc1 [SULFABENZAMIDE] | Not Active | 
74 | CCCCCCCCNC(C)C(O)c1ccc(SC(C)C)cc1 (configuration not stated) [SULOCTIDIL] | Not Active | 
75 | O=c1[nH]c(=O)n(C2CCCO2)cc1F (configuration not stated) [TEGAFUR] | Not Active | 
76 | CC(=N)S [THIOACETAMIDE] | Not Active | 
77 | Cc1ccc(C(=O)c2ccc(CC(=O)O)n2C)cc1 [TOLMETIN] | Not Active | 
78 | CC(=O)OCC(COC(C)=O)OC(C)=O [TRIACETIN] | Not Active | 
79 | CN1CCN(CCCN2c3ccccc3Sc3ccc(C(F)(F)F)cc32)CC1 [TRIFLUOPERAZINE] | Not Active | 
80 | TRANSPLATIN | Not Active | Not Active
81 | ZIRCONIUM(IV) CHLORIDE | Not Active | Not Active
